Measurements taken from publication PMC4577212, “X-Ray Structure and Mutagenesis Studies of the N-Isopropylammelide Isopropylaminohydrolase, AtzC” (PLoS ONE, 2015).

Biological target: T1, AtzC (N-isopropylammelide isopropylaminohydrolase) (Pseudomonas sp. ADP, UniProt O52063)
T1 construct: full length, N-terminal His-tag (pETCC2, from pET14b), expressed in E. coli BL21(DE3); tag cut with thrombin for crystals; homotetramer ~210 kDa; Zn enzyme
T1 sequence (O52063 1-403): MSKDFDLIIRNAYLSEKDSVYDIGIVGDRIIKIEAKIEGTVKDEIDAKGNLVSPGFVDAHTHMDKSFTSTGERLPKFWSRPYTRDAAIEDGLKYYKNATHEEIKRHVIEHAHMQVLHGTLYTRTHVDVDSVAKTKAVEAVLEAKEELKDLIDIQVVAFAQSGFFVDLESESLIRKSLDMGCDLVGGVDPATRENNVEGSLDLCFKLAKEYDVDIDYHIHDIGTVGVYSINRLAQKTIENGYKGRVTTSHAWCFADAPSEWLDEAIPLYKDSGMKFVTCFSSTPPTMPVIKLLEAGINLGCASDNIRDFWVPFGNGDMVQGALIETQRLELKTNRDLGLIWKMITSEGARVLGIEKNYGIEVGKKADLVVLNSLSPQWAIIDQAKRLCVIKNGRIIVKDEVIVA
Assay: X-ray crystal structure, […] Å
Type: binding
Settings: crystals from 2.4 M sodium malonate pH 7; active site; tag cut with thrombin

With `O=C(O)CC(=O)O` [malonic acid] the “X-ray crystal structure, 1.84 Å” value was “The malonate (a poor inhibitor of AtzC, Figure E in S1 File) adopts a planar conformation”.
